Reference: patent publication US20190298740A1, “METHODS AND COMPOSITIONS FOR TREATING HALLUCINATIONS AND CONDITIONS RELATED TO THE SAME” (Enterin, Inc., priority 2018, published 2019)
Where “and” joins values, the source holds several entries; their conditions need not be identical. Equal entries are not always repeated. Where two headings read alike, the source gives them in different places.

What was measured:
[1] = system: patients with PD and constipation; assay: Bowel function (prokinetic response, stool diary indices), Phase 2 trial; type: in vivo, human; conditions: for Cumulative prokinetic response rate (CSBM within 24 hours of dosing): Stage 1, single dose; for Prokinetic response rate (CSBM within 24 hours of dosing on at least 2 of 3 days): Stage 2, daily dosing; for CSBM, weekly average: baseline 1.2 (0.90); for PAC-SYM: baseline 1.3 (0.45); for SBM, weekly average: baseline 2.6 (1.45)
Experimental: Following successful screening, all subjects underwent a 14-day run-in period where the degree of constipation was assessed through a validated daily log (Zinsmeister et al. 2013) establishing baseline CSBMs/week. Subjects with an average of <3 CSBMs/week proceeded to dosing.
Tolerability limits included diarrhea or vomiting.
In Stage 2, 34 patients were evaluated.
The primary efficacy outcome variable was whether or not a subject was a “success” or “failure”. This is an endpoint based on subject diary entries for the “fixed dose” period prior to the endpoint assessment defined as average complete stool frequency increase by 1 or more over baseline, or 3 or more complete spontaneous stools/week. The subject was deemed a “success” if s/he met one or more of the criteria listed above, otherwise the subject was deemed a “failure”. The primary analysis was based on all subjects with a baseline assessment and an assessment at the end of the “fixed-dose” period and was a comparison of the proportion of successes with 0.10 (the null hypothesis corresponding to no treatment effect).

[2] = Pharmacokinetics of orally administered squalamine (ENT-01), Phase 2 trial; type: in vivo; conditions: human; for AUC(0-t) / half-life / Cmax / Tmax: po; for Cmax: mean, approximate; for Tmax: read-out: Tmax (median value)
Experimental: PK data were collected on the 10 patients enrolled in Stage 1 and 10 patients enrolled in Stage 2 to determine the extent of systemic absorption. In Stage 1, PK data were obtained at each visit, pre-medication, at 1, 2, 4, 8 and 24 hours (Table 11). In Stage 2, PK was measured on days 1 and 6 of the randomization period pre-medication, at 1, 2, 4 and 8 hours (Table 12).
The mean Cmax, Tmax and T1/2 and AUC of the squalamine ion following squalamine (ENT-01) oral dosing for Stage 1 patients. The PK analyses are only approximate, as the lower limit of the validated concentration range was 10 ng/ml; most of the measured concentrations fell below that value. The mean Cmax, Tmax and T1/2 and AUC of the squalamine ion following squalamine (ENT-01) oral dosing for Stage 2 patients. The PK analyses are only approximate, as the lower limit of the validated concentration range was 0.5 ng/ml.

[3] = Preclinical oral dosing studies in dogs; conditions: dog, in vivo
C. elegans αS model = conditions: in vivo, C. elegans model of PD; cited from earlier work
[4] = Stage 2, n = 34, fixed dose, mean (SD)
[5] = in vivo, 50 mg, Stage 1, 50 mg oral, 10 patients
[6] = in vivo, 100 mg, Stage 2, 100 mg oral daily, 4 patients (2 visits each)
[7] = in vivo, 175 mg, Stage 1, 175 mg oral, 7 patients
[8] = in vivo, 175 mg, Stage 2, 175 mg oral daily, 5 patients (2 visits each)
[9] = plasma, 25 mg, Stage 1, 25 mg oral, 9 patients
[10] = plasma, 75 mg, Stage 1, 75 mg oral, 9 patients
[11] = plasma, 75 mg, Stage 2, 75 mg oral daily, 1 patient (2 visits)
[12] = plasma, 100 mg, Stage 1, 100 mg oral, 9 patients
[13] = plasma, 125 mg, Stage 1, 125 mg oral, 9 patients
[14] = plasma, 200 mg, Stage 1, 200 mg oral, 6 patients

## CC(C)[C@@H](CC[C@@H](C)[C@H]1CC[C@H]2[C@@H]3[C@H](O)C[C@H]4C[C@@H](NCCCNCCCCN)CC[C@]4(C)[C@H]3CC[C@]12C)OS(=O)(=O)O (single isomer, unassigned) [squalamine (ENT-01)]
[1]; 75 mg to 250 mg
  Patients responding within the effective dose range: 85%
[1]; 25 mg
  Cumulative prokinetic response rate (CSBM within 24 hours of dosing): 25%
[1]; 200 mg (maximum)
  Cumulative prokinetic response rate (CSBM within 24 hours of dosing): 80%
[1]; Stage 2
  Median efficacious dose: 100 mg
[1]; 75 mg
  Prokinetic response rate (CSBM within 24 hours of dosing on at least 2 of 3 days): 26%
[1]; 250 mg
  Prokinetic response rate (CSBM within 24 hours of dosing on at least 2 of 3 days): 85.3%
[1]; [4]
  CSBM, weekly average: 3.8 /week and 3.8 (2.4) /week
  PAC-SYM: 1.1 (0.49)
  SBM, weekly average: 4.5 /week
[1]; Stage 2, n = 34, fixed dose, mean (SD), baseline 1.8 (1.92)
  Suppository use / rescue medication, weekly average: 0.3 /week
[1]; Stage 2, wash-out, mean (SD)
  CSBM, weekly average: 1.8 (1.19) /week
  PAC-SYM: 1.1 (0.60)
  SBM, weekly average: 3.2 (1.80) /week
[1]; Stage 2, wash-out, mean (SD), baseline 1.4 (0.49)
  PAC-QOL: 1.2 (0.63)
[1]; Stage 2, wash-out, mean (SD), baseline 1.8 (1.92)
  Rescue meds, weekly average: 1.0 (1.40) /week
[1]; Stage 2, wash-out, mean (SD), baseline 2.7 (1.20)
  Stool consistency (Bristol stool scale 1-7): 2.8 (1.39)
[1]; Stage 2, wash-out, mean (SD), baseline 3.2 (0.73)
  Ease of passage (Ease of evacuation scale 1-7): 3.3 (0.81)
[1]; group later randomized to placebo (n = 9), fixed dose period on drug, baseline 1.6
  CSBM frequency, randomized cohort: 3.3 CSBM/week
[1]; group randomized to treatment (n = 6), fixed dose period, baseline 0.8
  CSBM frequency, randomized cohort: 3.2 CSBM/week
[1]; group randomized to treatment (n = 6), randomized period 4-6 days, baseline 0.8
  CSBM frequency, randomized cohort: 2.4 CSBM/week
[1]; group randomized to treatment (n = 6), washout, baseline 0.8
  CSBM frequency, randomized cohort: 0.9 CSBM/week
[1]; patients with baseline constipation of <1 CSBM/week
  Mean dose required for a bowel response: 192 mg
[1]; patients with baseline ≥1 CSBM/week
  Mean dose required for a bowel response: 120 mg
[2]; in vivo, 25 mg, Stage 1, 25 mg oral, 9 patients, read-out: AUC0-8hr
  AUC(0-t): 10.8 ng·h/mL
[2]; in vivo, 25 mg, Stage 1, 25 mg oral, 9 patients, read-out: AUC0-16hr
  AUC(0-t): 19.6 ng·h/mL
[2]; in vivo, 25 mg, Stage 1, 25 mg oral, n = 3, read-out: T½ (converted)
  half-life: 156 min
[2]; [5]
  Cmax: 3.73 ng/mL
  Tmax: 2 h
[2]; in vivo, 50 mg, Stage 1, 50 mg oral, 10 patients, read-out: AUC0-8hr
  AUC(0-t): 18.5 ng·h/mL
[2]; in vivo, 50 mg, Stage 1, 50 mg oral, 10 patients, read-out: AUC0-16hr
  AUC(0-t): 33.1 ng·h/mL
[2]; in vivo, 50 mg, Stage 1, 50 mg oral, n = 3, read-out: T½ (converted)
  half-life: 204 min
[2]; [6]
  Cmax: 17.7 ng/mL
  Tmax: 1 h
[2]; in vivo, 100 mg, Stage 2, 100 mg oral daily, 4 patients (2 visits each), read-out: AUC0-8 hr
  AUC(0-t): 70.3 ng·h/mL
[2]; in vivo, 100 mg, Stage 2, 100 mg oral daily, n = 5, read-out: T1/2 (converted)
  half-life: 288 min
[2]; in vivo, 150 mg, Stage 1, 150 mg oral, 7 patients, read-out: AUC0-8hr
  AUC(0-t): 31.5 ng·h/mL
[2]; in vivo, 150 mg, Stage 1, 150 mg oral, 7 patients, read-out: AUC0-16hr
  AUC(0-t): 64 ng·h/mL
[2]; in vivo, 150 mg, Stage 1, 150 mg oral, 7 patients
  Tmax: 2 h
[2]; in vivo, 150 mg, Stage 1, 150 mg oral, n = 4, read-out: T½ (converted)
  half-life: 336 min
[2]; [7]
  Cmax: 10.3 ng/mL
  Tmax: 2 h
[2]; in vivo, 175 mg, Stage 1, 175 mg oral, 7 patients, read-out: AUC0-8hr
  AUC(0-t): 49.7 ng·h/mL
[2]; in vivo, 175 mg, Stage 1, 175 mg oral, n = 6, read-out: T½ (converted)
  half-life: 546 min
[2]; [8]
  Cmax: 11.8 ng/mL
  Tmax: 2 h
[2]; in vivo, 175 mg, Stage 2, 175 mg oral daily, 5 patients (2 visits each), read-out: AUC0-8 hr
  AUC(0-t): 66.8 ng·h/mL
[2]; in vivo, 175 mg, Stage 2, 175 mg oral daily, n = 6, read-out: T1/2 (converted)
  half-life: 600 min
[2]; [9]
  Cmax: 2.84 ng/mL
  Tmax: 1 h
[2]; [10]
  Cmax: 4.33 ng/mL
  Tmax: 2 h
[2]; plasma, 75 mg, Stage 1, 75 mg oral, 9 patients, read-out: AUC0-8hr
  AUC(0-t): 18.4 ng·h/mL
[2]; plasma, 75 mg, Stage 1, 75 mg oral, 9 patients, read-out: AUC0-16hr
  AUC(0-t): 29.8 ng·h/mL
[2]; plasma, 75 mg, Stage 1, 75 mg oral, n = 2, read-out: T½ (converted)
  half-life: 168 min
[2]; [11]
  Cmax: 10 ng/mL
  Tmax: 3 h
[2]; plasma, 75 mg, Stage 2, 75 mg oral daily, 1 patient (2 visits), read-out: AUC0-8 hr
  AUC(0-t): 59 ng·h/mL
[2]; plasma, 75 mg, Stage 2, 75 mg oral daily, n = 1, read-out: T1/2 (converted)
  half-life: 330 min
[2]; [12]
  Cmax: 6.18 ng/mL
  Tmax: 2 h
[2]; plasma, 100 mg, Stage 1, 100 mg oral, 9 patients, read-out: AUC0-8hr
  AUC(0-t): 29.6 ng·h/mL
[2]; plasma, 100 mg, Stage 1, 100 mg oral, 9 patients, read-out: AUC0-16hr
  AUC(0-t): 51.5 ng·h/mL
[2]; plasma, 100 mg, Stage 1, 100 mg oral, n = 5, read-out: T½ (converted)
  half-life: 234 min
[2]; [13]
  Cmax: 9.63 ng/mL
  Tmax: 2 h
[2]; plasma, 125 mg, Stage 1, 125 mg oral, 9 patients, read-out: AUC0-8hr
  AUC(0-t): 43.1 ng·h/mL
[2]; plasma, 125 mg, Stage 1, 125 mg oral, 9 patients, read-out: AUC0-16hr
  AUC(0-t): 77.7 ng·h/mL
[2]; plasma, 125 mg, Stage 1, 125 mg oral, n = 4, read-out: T½ (converted)
  half-life: 234 min
[2]; plasma, 150 mg, Stage 1, 150 mg oral, 7 patients
  Cmax: 6.27 ng/mL
[2]; plasma, 175 mg, Stage 1, 175 mg oral, 7 patients, read-out: AUC0-16hr
  AUC(0-t): 91.2 ng·h/mL
[2]; [14]
  Cmax: 15.1 ng/mL
  Tmax: 2 h
[2]; plasma, 200 mg, Stage 1, 200 mg oral, 6 patients, read-out: AUC0-8hr
  AUC(0-t): 78.3 ng·h/mL
[2]; plasma, 200 mg, Stage 1, 200 mg oral, 6 patients, read-out: AUC0-16hr
  AUC(0-t): 157 ng·h/mL
[2]; plasma, 200 mg, Stage 1, 200 mg oral, n = 5, read-out: T½ (converted)
  half-life: 540 min
[2]; plasma, Stage 1, oral dosing up to 200 mg (114 mg/m^2), compared with prior phase 1 IV data, read-out: Approximate oral bioavailability
  bioavailability: ~0.1%
[3]
  bioavailability: ~0.1%
C. elegans αS model
  Formation of aggregates of αS: inhibits the formation of αS aggregates
